According to patent US12655116B2, “Substituted isophthalic acid diamides” (Bayer Aktiengesellschaft, priority 2020, dated 2026):

How the values were obtained:
ABUTH [1] = assay: Pre-emergence herbicidal action against ABUTH; format: in vivo, Abutilon theophrasti
Outline: (§1)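 Sandy loam pots, seeds covered with soil, then surface-treated with WP or EC formulations at 600–800 l/ha water plus 0.2% wetting agent. Greenhouse, 3 weeks. Percent damage vs untreated controls.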

AMARE [2] = assay: Pre-emergence herbicidal action against AMARE; format: in vivo, Amaranthus retroflexus
Outline: as §1

AVEFA [3] = assay: Pre-emergence herbicidal action against AVEFA; format: in vivo, Avena fatua
Outline: as §1

ECHCG [4] = assay: Pre-emergence herbicidal action against ECHCG; format: in vivo, Echinochloa crus-galli
Outline: as §1

MATIN [5] = assay: Pre-emergence herbicidal action against MATIN; format: in vivo, Matricaria inodora
Outline: as §1

SETVI [6] = assay: Pre-emergence herbicidal action against SETVI; format: in vivo, Setaria viridis; settings: dosage 80 g/ha
Outline: as §1

VERPE [7] = assay: Pre-emergence herbicidal action against VERPE; format: in vivo, Veronica persica; settings: dosage 80 g/ha
Outline: as §1

VIOTR [8] = assay: Pre-emergence herbicidal action against VIOTR; format: in vivo, Viola tricolor
Outline: as §1

ABUTH [9] = assay: Post-emergence herbicidal action against ABUTH; format: in vivo, Abutilon theophrasti; settings: dosage 20 g/ha, visual assessment about 3 weeks after treatment vs untreated controls
Outline: (§2)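 Herbicidal action is a visual percentage rating (0% = as untreated control, 100% = plants dead) made roughly 3 weeks after treatment. Plants were grown in sandy loam in the greenhouse and treated at the one-leaf stage, 2 to 3 weeks post-sowing. Treatment was a foliar spray of wettable-powder or emulsion-concentrate formulations at 600 to 800 l/ha water plus 0.2% wetting agent.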

AMARE [10] = assay: Post-emergence herbicidal action against AMARE; format: in vivo, Amaranthus retroflexus; settings: 20 g/ha, visual assessment about 3 weeks after treatment, 100% = plants have died, 0% = like control plants
Outline: as §2

AVEFA [11] = assay: Post-emergence herbicidal action against AVEFA; format: in vivo, Avena fatua; settings: 20 g/ha, visual assessment about 3 weeks after treatment, 100% = plants have died, 0% = like control plants
Description: Seeds of monocotyledonous and dicotyledonous weed and crop plants are laid out in sandy loam soil in wood-fiber pots, covered with soil and cultivated in a greenhouse under good growth conditions. 2 to 3 weeks after sowing, the test plants are treated at the one-leaf stage. The compounds of the invention, formulated in the form of wettable powders (WP) or as emulsion concentrates (EC), are then sprayed onto the green parts of the plants in the form of an aqueous suspension or emulsion at a water application rate equivalent to 600 to 800 l/ha, with addition of 0.2% wetting agent. After the test plants have been left to stand in the greenhouse under optimal growth conditions for about 3 weeks, the action of the preparations is assessed visually in comparison to untreated controls (herbicidal action in percent (%): 100% activity=the plants have died, 0% activity=like control plants). […] The tables below illustrate, in an illustrative manner, the post-emergence herbicidal action of the compounds of the invention, the herbicidal activity being stated in percent.

ECHCG [12] = assay: Post-emergence herbicidal action against ECHCG; format: in vivo, Echinochloa crus-galli; settings: dosage 20 g/ha
Outline: as §2

MATIN [13] = assay: Post-emergence herbicidal action against MATIN; format: in vivo, Matricaria inodora; settings: dosage 20 g/ha
Outline: as §2

VIOTR [14] = assay: Post-emergence herbicidal action against VIOTR; format: in vivo, Viola tricolor
Outline: as §2

POLCO = assay: Pre-emergence herbicidal action against POLCO; format: in vivo, Polygonum convolvulus; settings: dosage 80 g/ha
Outline: as §1

STEME = assay: Pre-emergence herbicidal action against STEME; format: in vivo, Stellaria media; settings: dosage 80 g/ha
From the text: Seeds of monocotyledonous and dicotyledonous weed plants and crop plants are laid out in sandy loam soil in wood-fiber pots and covered with soil. The compounds of the invention, formulated in the form of wettable powders (WP) or as emulsion concentrates (EC), are then applied to the surface of the covering soil in the form of an aqueous suspension or emulsion at a water application rate equivalent to 600 to 800 l/ha, with addition of 0.2% wetting agent. After the treatment, the pots are placed in a greenhouse and kept under good growth conditions for the trial plants. The damage to the test plants is scored visually after a test period of 3 weeks by comparison with untreated controls (herbicidal activity in percent (%): 100% activity=the plants have died, 0% activity=like control plants). […] The tables below illustrate, in an illustrative manner, the post-emergence herbicidal action of the compounds of the invention, the herbicidal activity being stated in percent.

DIGSA = assay: Pre-emergence herbicidal action against DIGSA; format: in vivo, Digitaria sanguinalis
Outline: as §1

VERPE [15] = assay: Post-emergence herbicidal action against VERPE; format: in vivo, Veronica persica; settings: 20 g/ha
Outline: as §2

ALOMY [16] = assay: Pre-emergence herbicidal action against ALOMY; format: in vivo, Alopecurus myosuroides; settings: Alopecurus myosuroides, 504 h; 80 g/ha, pre-emergence, scored visually after 3 weeks vs untreated controls (100% = plants have died, 0% = like control plants)
Outline: as §1

ALOMY [17] = assay: Post-emergence herbicidal action against ALOMY; format: in vivo, Alopecurus myosuroides; settings: Alopecurus myosuroides, 504 h, dosage 20 g/ha, visual assessment about 3 weeks after treatment vs untreated controls
Outline: as §2

SETVI [18] = assay: Post-emergence herbicidal action against SETVI; format: in vivo, Setaria viridis; settings: Setaria viridis, 504 h
Outline: as §2

[19] = 80 g/ha, scored visually after 3 weeks vs untreated controls (100% = plants have died, 0% = like control plants)
[20] = 20 g/ha, scored visually after 3 weeks vs untreated controls, 100% = plants have died, 0% = like control plants

Compound: CCn1nnnc1NC(=O)c1ccc(C(F)F)c(C(=O)NCC2CC2)c1SC [Example 2-90]
- Pre-emergence action against ABUTH (herbicidal activity) (ABUTH [1]; [19]): 100%
- Pre-emergence action against ABUTH (herbicidal activity in percent) (ABUTH [1]; dosage 20 g/ha, scored visually after 3 weeks vs untreated controls, 100% = plants have died, 0% = like control plants): 100%
- Pre-emergence action against AMARE in % (AMARE [2]; [20]): 100%
- Pre-emergence action against AMARE in % (AMARE [2]; [19]): 100%
- Pre-emergence action against AVEFA (AVEFA [3]; 20 g/ha, scored visually after 3 weeks, 100% = plants have died, 0% = like control plants): 80%
- Pre-emergence action against AVEFA in % (AVEFA [3]; 80 g/ha, pre-emergence): 90%
- Pre-emergence action against ECHCG in % (ECHCG [4]; 20 g/ha): 90%
- Pre-emergence action against ECHCG in % (ECHCG [4]; 80 g/ha): 100%
- Pre-emergence action against MATIN in % (MATIN [5]; dosage 20 g/ha): 100%
- Pre-emergence action against MATIN in % (MATIN [5]; dosage 80 g/ha): 100%
- Pre-emergence action against SETVI in % (SETVI [6]): 100%
- Pre-emergence action against VERPE in % (VERPE [7]): 90%
- Pre-emergence action against VIOTR in % (VIOTR [8]; dosage 20 g/ha): 80%
- Pre-emergence action against VIOTR in % (VIOTR [8]; dosage 80 g/ha): 100%
- Post-emergence action against ABUTH in % (ABUTH [9]): 90%
- Post-emergence action at 20 g/ha against AMARE in % (AMARE [10]): 100%
- Post-emergence action at 20 g/ha against AVEFA in % (AVEFA [11]): 80%
- Post-emergence action against ECHCG in % (ECHCG [12]): 100%
- Post-emergence action against MATIN in % (MATIN [13]): 90%
- Post-emergence action against VIOTR in % (VIOTR [14]; 5 g/ha): 100%
- Post-emergence action against VIOTR in % (VIOTR [14]; 20 g/ha): 100%

Compound: CCn1nnnc1NC(=O)c1ccc(S(C)(=O)=O)c(C(=O)NC)c1Cl [Example 2-123]
- Pre-emergence action against ABUTH (herbicidal activity) (ABUTH [1]; [19]): 100%
- Pre-emergence action against AMARE in % (AMARE [2]; [20]): 80%
- Pre-emergence action against AMARE in % (AMARE [2]; [19]): 100%
- Pre-emergence action against MATIN in % (MATIN [5]; dosage 20 g/ha): 80%
- Pre-emergence action against MATIN in % (MATIN [5]; dosage 80 g/ha): 100%
- Pre-emergence action against POLCO in % (POLCO): 80%
- Pre-emergence action against STEME in % (STEME): 80%
- Pre-emergence action against VIOTR in % (VIOTR [8]; dosage 80 g/ha): 80%
- Pre-emergence action against DIGSA in % (DIGSA; dosage 20 g/ha): 80%
- Pre-emergence action against DIGSA in % (DIGSA; dosage 80 g/ha): 90%
- Post-emergence action at 20 g/ha against AMARE in % (AMARE [10]): 80%
- Post-emergence action against VERPE in % (VERPE [15]): 80%

Compound: CCn1nnnc1NC(=O)c1ccc(Cl)c(C(=O)NC2CC2)c1Br [Example 2-349]
- pest or weed control at 80 g/ha (ABUTH [1]; Abutilon theophrasti, 504 h, 80 g/ha, scored visually after 3 weeks vs untreated controls (100% = plants have died, 0% = like control plants)): 100%
- pest or weed control at 80 g/ha (ALOMY [16]): 100%
- pest or weed control at 20 g/ha (AMARE [2]; Amaranthus retroflexus, 504 h, 20 g/ha, scored visually after 3 weeks vs untreated controls, 100% = plants have died, 0% = like control plants): 100%
- pest or weed control at 80 g/ha (AMARE [2]; Amaranthus retroflexus, 504 h, 80 g/ha, scored visually after 3 weeks vs untreated controls, 100% = plants have died, 0% = like control plants): 100%
- pest or weed control at 80 g/ha (AVEFA [3]; Avena fatua, 504 h, 80 g/ha, pre-emergence): 100%
- pest or weed control at 20 g/ha (AVEFA [3]; Avena fatua, pre-emergence, 504 h, 20 g/ha, scored visually after 3 weeks, 100% = plants have died, 0% = like control plants): 90%
- pest or weed control at 80 g/ha (ECHCG [4]; Echinochloa crus-galli, 504 h, 80 g/ha): 90%
- pest or weed control at 20 g/ha (MATIN [5]; Tripleurospermum inodorum, 504 h, dosage 20 g/ha): 90%
- pest or weed control at 80 g/ha (MATIN [5]; Tripleurospermum inodorum, 504 h, dosage 80 g/ha): 100%
- pest or weed control at 80 g/ha (SETVI [6]; Setaria viridis, 504 h): 100%
- pest or weed control at 80 g/ha (VERPE [7]; Veronica persica, 504 h): 80%
- pest or weed control at 20 g/ha (VIOTR [8]; Viola tricolor, 504 h, dosage 20 g/ha): 90%
- pest or weed control at 80 g/ha (VIOTR [8]; Viola tricolor, 504 h, dosage 80 g/ha): 100%
- pest or weed control at 20 g/ha (ABUTH [9]; Abutilon theophrasti, 504 h): 80%
- pest or weed control at 20 g/ha (ALOMY [17]): 80%
- pest or weed control at 20 g/ha (AMARE [10]; Amaranthus retroflexus, 504 h): 100%
- pest or weed control at 20 g/ha (AVEFA [11]; Avena fatua, 504 h): 90%
- pest or weed control at 5 g/ha (SETVI [18]; dosage 5 g/ha): 90%
- pest or weed control at 20 g/ha (SETVI [18]; dosage 20 g/ha): 100%
- pest or weed control at 20 g/ha (VIOTR [14]; Viola tricolor, 504 h, 20 g/ha): 80%
